Biological target: T1, human RXFP1 (Homo sapiens, UniProt Q9HBX9)
T1 construct: expressed in transfected cells
T1 sequence (Q9HBX9 1-757): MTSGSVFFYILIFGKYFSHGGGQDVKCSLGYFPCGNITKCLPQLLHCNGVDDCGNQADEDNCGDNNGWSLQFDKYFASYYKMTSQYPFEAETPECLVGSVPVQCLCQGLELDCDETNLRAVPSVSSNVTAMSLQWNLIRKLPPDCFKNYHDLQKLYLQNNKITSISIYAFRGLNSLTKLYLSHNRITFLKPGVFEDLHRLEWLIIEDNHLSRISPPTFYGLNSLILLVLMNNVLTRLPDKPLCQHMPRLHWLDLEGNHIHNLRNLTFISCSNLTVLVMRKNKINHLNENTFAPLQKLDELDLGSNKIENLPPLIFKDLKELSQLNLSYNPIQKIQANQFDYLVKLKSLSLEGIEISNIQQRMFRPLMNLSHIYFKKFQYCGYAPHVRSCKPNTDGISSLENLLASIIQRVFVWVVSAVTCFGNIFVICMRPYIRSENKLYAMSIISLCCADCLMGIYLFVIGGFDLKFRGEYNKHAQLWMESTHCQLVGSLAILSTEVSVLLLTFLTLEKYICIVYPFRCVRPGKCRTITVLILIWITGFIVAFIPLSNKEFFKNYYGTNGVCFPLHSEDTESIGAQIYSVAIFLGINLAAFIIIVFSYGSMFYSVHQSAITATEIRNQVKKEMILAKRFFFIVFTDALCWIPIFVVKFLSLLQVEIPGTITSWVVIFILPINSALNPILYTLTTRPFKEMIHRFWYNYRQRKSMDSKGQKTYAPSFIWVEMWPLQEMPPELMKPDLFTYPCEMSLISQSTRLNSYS
Experiment: RXFP1 cAMP assay (hRXFP1 HEK293 cAMP assay, HTRF)
Assay type: cell-based
Details: HEK293 cells stably expressing human RXFP1, 30 min at room temperature, read-out: cAMP hRXFP1 HEK293 Assay EC50
In short: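 Potency and activity come from a four-parameter logistic fit of cAMP against compound concentration, tested from 0.010 nM up to 50 μM. The assay uses HEK293 cells stably expressing human RXFP1, incubated 30 min at ambient temperature with phosphodiesterase inhibitor IBMX present.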

| Structure (SMILES) | EC50 |
| --- | --- |
| COc1cc(F)c(F)cc1C(=O)N[C@@H]1[C@@H]2CCC(/C2=C/c2ccoc2)[C@@H]1C(=O)Nc1ccc(F)c(C(F)(F)F)c1 [Example 12] | 410 nM |
| COc1ccc(C2=NOC3C[C@H](O)CC23)cc1C(=O)N[C@@H]1C2CCC(/C2=C/C2CC2)[C@@H]1C(=O)Nc1ccc(F)c(C(F)(F)F)c1 (stereo partly shown) [compound 407] | 21 nM |
| O=C(NC1CCC1)O[C@@H](c1ccc(F)c(-c2ccc(OCCO)c(C(=O)N[C@@H]3C4CCC(/C4=C/C(F)(F)F)[C@@H]3C(=O)Nc3ccc(F)c(C(F)(F)F)c3)c2)c1)C(F)(F)F (stereo partly shown) [compound 319] | 13 nM |
| COc1ccc(-c2ccc(C(=O)N(C)C)cc2F)cc1C(=O)N[C@@H]1C2CCC(/C2=C/c2ccccc2)[C@@H]1C(=O)Nc1ccc(F)c(C(F)(F)F)c1 (stereo partly shown) [compound 195] | 29 nM |
| COc1ccc(-c2cc(C3OC(=O)N(c4ccccc4)C3=O)ccc2F)cc1C(=O)N[C@@H]1C2CCC(/C2=C/C2CC2)[C@@H]1C(=O)Nc1ccc(F)c(C(F)(F)F)c1 (stereo partly shown) [compound 255] | 3 nM |
| COc1ccc(C2=NOC3CC(CO)CC23)cc1C(=O)N[C@H]1[C@@H](C(=O)Nc2ccc(F)c(C(F)(F)F)c2)[C@H]2CC[C@@H]1/C2=C\C1CCCC1 (stereo partly shown) [compound 445] | 0.5 nM |
| COc1ccc(-c2ccc3c(c2)nnn3CC(=O)O)cc1C(=O)N[C@@H]1C2CCC(/C2=C/C(F)(F)F)[C@@H]1C(=O)Nc1ccc(F)c(C(F)(F)F)c1 (stereo partly shown) [compound 312] | 9 nM |
| COc1ccc(C2=NOC3CCCC23)cc1C(=O)N[C@H]1[C@@H](C(=O)Nc2ccc(F)c(C(F)(F)F)c2)[C@H]2CC[C@@H]1/C2=C\C1CC1 (single isomer, unassigned) [Example 441] | 360 nM |
| COc1ccc(-c2cc(C(OC(=O)NCC(F)(F)F)C(F)(F)F)ccc2F)cc1C(=O)N[C@@H]1C2CCC(/C2=C/C2CC2)[C@@H]1C(=O)Nc1ccc(F)c(C(F)(F)F)c1 (stereo partly shown) [compound 220] | 8 nM |
| COc1ccc(C2=NOC3CNCC23)cc1C(=O)N[C@H]1[C@@H](C(=O)Nc2ccc(F)c(C(F)(F)F)c2)[C@H]2CC[C@@H]1/C2=C\C1CC1 (stereo partly drawn) [Example 437, (1R,2S,3R,4R,Z)-7-(cyclopropylmethylene)-N-(4-fluoro-3-(trifluoromethyl)phenyl)-3-(2-methoxy-5-(3a,5,6,6a-tetrahydro-4H-pyrrolo[3,4-d]isoxazol-3-yl)benzamido)bicyclo[2.2.1]heptane-2-carboxamide] | 31 nM |
| COc1ccc(C2=NOC(CC(=O)O)C2)cc1C(=O)N[C@@H]1C2CCC(/C2=C/C2CCC2)[C@@H]1C(=O)Nc1ccc(F)c(C(F)(F)F)c1 (stereo partly shown) [compound 394] | 49 nM |
| C=C/C=C1\C2CCC1[C@H](C(=O)Nc1ccc(F)c(C(F)(F)F)c1)[C@@H]2NC(=O)c1cc(-c2cc(C(=O)NC)ccc2F)ccc1OC (stereo partly shown) [compound 164] | 14 nM |
| COc1ccc(C2=NOC3CC(CO)CC23)cc1C(=O)N[C@H]1[C@@H](C(=O)Nc2ccc(F)c(C(F)(F)F)c2)[C@H]2CC[C@@H]1C2CC1CCC1 (stereo partly shown) [compound 523] | 21.3 nM |
| CNC(=O)OC(C(=O)O)c1ccc(F)c(-c2ccc(OC)c(C(=O)N[C@@H]3C4CCC(/C4=C/C(F)(F)F)[C@@H]3C(=O)Nc3ccc(F)c(C(F)(F)F)c3)c2)c1 (stereo partly shown) [compound 180] | 5 nM |
| COc1ccc(-c2cc(C(=O)OC(C)(C)C)ccc2F)cc1C(=O)N[C@@H]1C2CCC(/C2=C/C(F)(F)F)[C@@H]1C(=O)Nc1ccc(F)c(C(F)(F)F)c1 (stereo partly shown) [compound 294] | 47 nM |
| CCOC(=O)c1ccnn1-c1ccc(OC)c(C(=O)N[C@@H]2C3CCC(/C3=C/C(F)(F)F)[C@@H]2C(=O)Nc2ccc(F)c(C(F)(F)F)c2)c1 (stereo partly shown) [compound 344] | 757 nM |
| COc1cc(F)c(F)cc1C(=O)N[C@@H]1C2CCC(/C2=C/c2cccc(Oc3ccccc3)c2)[C@@H]1C(=O)Nc1ccc(F)c(C(F)(F)F)c1 (stereo partly shown) [compound 46] | 120 nM |
| COc1ccc(-c2cc(C(O)C(=O)O)ccc2F)cc1C(=O)NC1C2CCC(/C2=C/CCC(C)(C)C)C1C(=O)Nc1ccc(F)c(C(F)(F)F)c1 (stereo not shown) [compound 354] | 11 nM |
| O=C(NC1CCC1)OC(c1ccc(F)c(-c2ccc(OCCO)c(C(=O)N[C@H]3[C@@H](C(=O)Nc4ccc(F)c(C(F)(F)F)c4)[C@H]4CC[C@@H]3/C4=C\C3CC3)c2)c1)C(F)(F)F (stereo partly drawn) [Example 253, 1-(3′-(((1R,2R,3S,4R,Z)-7-(cyclopropylmethylene)-3-((4-fluoro-3-(trifluoromethyl)phenyl)carbamoyl)bicyclo[2.2.1]heptan-2-yl)carbamoyl)-6-fluoro-4′-(2-hydroxyethoxy)-[1,1′-biphenyl]-3-yl)-2,2,2-trifluoroethyl cyclobutylcarbamate] | 17 nM |
| COc1ccc(-c2cc(C(NC(=O)C(F)(F)F)C(=O)O)ccc2F)cc1C(=O)N[C@@H]1C2CCC(/C2=C/C(F)(F)F)[C@@H]1C(=O)Nc1ccc(F)c(C(F)(F)F)c1 (stereo partly shown) [compound 241] | 3 nM |

Results, then the compound that gave them:

| EC50 | Structure (SMILES) |
| --- | --- |
| 1750 nM | O=C(N[C@H]1[C@@H](C(=O)Nc2ccc(F)c(C(F)(F)F)c2)[C@H]2CC[C@@H]1/C2=C\C1CC1)c1ccc(F)c(C2=NOC3COCC23)c1 (stereo partly shown) [compound 714] |
| 789 nM | O=C(N[C@H]1[C@@H](C(=O)Nc2ccc(F)c(C(F)(F)F)c2)[C@H]2CC[C@@H]1/C2=C\C1CC1)c1cc(C2=NOC3CC(CO)CC23)ccc1F (single isomer, unassigned) [compound 692] |
| 3.9 nM | COc1ccc(-c2cccc(S(C)(=O)=O)c2)cc1C(=O)N[C@H]1[C@@H](C(=O)Nc2ccc(F)c(C(F)(F)F)c2)[C@H]2CC[C@@H]1/C2=C\C1CC1 [compound 898] |
| 191 nM | COc1ccc(C2=NOC3COCC23)cc1C(=O)N[C@H]1[C@@H](C(=O)NC2CCC2)[C@H]2CC[C@@H]1/C2=C\C1CC1 (stereo partly shown) [compound 635] |
| 2.2 nM | COc1ccc(C2=NO[C@H]3C[C@H](CO)CN23)cc1C(=O)N[C@H]1[C@@H](C(=O)Nc2ccc(F)c(C(F)(F)F)c2)[C@H]2CC[C@@H]1/C2=C\CCC(F)(F)F [compound 818] |
| 312 nM | COc1ccc(C2=NOC(CO)C2CO)cc1C(=O)N[C@H]1[C@@H](C(=O)Nc2ccc(F)c(C(F)(F)F)c2)[C@H]2CC[C@@H]1/C2=C\C1CC1 (single isomer, unassigned) [compound 657] |
| 675 nM | COc1ccc(C2CCCN2C(=O)C(C)(C)O)cc1C(=O)N[C@@H]1C2CCC(C2=CC2CC2)[C@@H]1C(=O)Nc1ccc(F)c(C(F)(F)F)c1 (stereo partly shown) [compound 688] |
| 59.4 nM | COc1ccc(C2CCN(CC(C)(C)O)C2)cc1C(=O)N[C@@H]1C2CCC(C2=CC2CC2)[C@@H]1C(=O)Nc1ccc(F)c(C(F)(F)F)c1 (stereo partly shown) [compound 568] |
| 2.7 nM | O=C(N[C@H]1[C@@H](C(=O)Nc2ccc(F)c(C(F)(F)F)c2)[C@H]2CC[C@@H]1/C2=C\C1CC1)c1cc(C2=NOC3CC(CO)CC23)ccc1OCC(F)F (stereo partly shown) [compound 781] |
| 5.8 nM | COc1ccc(-c2cc([C@H](OC(=O)NC3CCC3)C(=O)O)ccc2F)cc1C(=O)N[C@H]1[C@@H](C(=O)Nc2ccc(F)c(C(F)(F)F)c2)[C@H]2CC[C@@H]1/C2=C\CC(C)C [compound 937] |
| 1360 nM | COc1ccc(C2=NC[C@@H]3CCCN23)cc1C(=O)N[C@H]1[C@@H](C(=O)Nc2ccc(F)c(C(F)(F)F)c2)[C@H]2CC[C@@H]1/C2=C\C1CC1 [compound 708] |
| 1.9 nM | COc1ccc(C2=NOC3CC(CO)CC23)cc1C(=O)N[C@@H]1C2CCC(/C2=C/C2CC2)[C@@H]1C(=O)Nc1ccc(F)c(OC(F)(F)F)c1 (stereo partly shown) [compound 972] |
| 4.5 nM | COc1ccc(C2=NOC3CC(C(C)O)CC23)cc1C(=O)N[C@H]1[C@@H](C(=O)Nc2ccc(F)c(C(F)(F)F)c2)[C@H]2CC[C@@H]1/C2=C\C1CC1 (stereo partly shown) [compound 855] |
| 1.9 nM | COc1ccc(C2=NOC3COCC23)cc1C(=O)N[C@H]1[C@@H](C(=O)Nc2ccc(F)c(OC(F)(F)F)c2)[C@H]2CC[C@@H]1/C2=C\C1CC1 (stereo partly shown) [compound 761] |
| 2.5 nM | COc1ccc(C2=NOC3CC(C(O)C(F)(F)F)CC23)cc1C(=O)N[C@H]1[C@@H](C(=O)Nc2ccc(F)c(C(F)(F)F)c2)[C@H]2CC[C@@H]1/C2=C\C1CC1 (stereo partly shown) [compound 848] |
| 5 nM | COc1ccc(-c2cnc3n2CC(O)CC3)cc1C(=O)N[C@H]1[C@@H](C(=O)Nc2ccc(F)c(C(F)(F)F)c2)[C@H]2CC[C@@H]1/C2=C\C1CC1 (stereo partly shown) [compound 755] |
| 217 nM | COCc1ccccc1CNC(=O)[C@@H]1[C@H](NC(=O)c2cc(C3=NOC4COCC34)ccc2OC)[C@@H]2CC[C@H]1/C2=C/C1CC1 (stereo partly shown) [compound 641] |
| 2.9 nM | COc1ccc(C2=NO[C@H]3CC(CO)C[C@@H]23)cc1C(=O)N[C@H]1[C@@H](C(=O)Nc2ccc(F)c(C(F)(F)F)c2)[C@H]2CC[C@@H]1/C2=C\CCC1CC1 (stereo partly shown) [compound 824] |
| 47.3 nM | COc1ccc(C2=NOC3COCC23)cc1C(=O)N[C@H]1[C@@H](C(=O)NCC(C)(C)OC)[C@H]2CC[C@@H]1/C2=C\C1CC1 (stereo partly shown) [compound 564] |
| 22.9 nM | COc1cc(C)c(C2=NOC3COCC23)cc1C(=O)N[C@H]1[C@@H](C(=O)Nc2ccc(F)c(C(F)(F)F)c2)[C@H]2CC[C@@H]1/C2=C\C1CC1 (stereo partly shown) [compound 532] |

Reference: US20250221966A1, “RXFP1 AGONISTS” (BRISTOL-MYERS SQUIBB COMPANY, priority 2021, published 2025)
